Test system: not given
Conditions: not given

Molecule	melting point
O=C(NC(=O)c1cccc(-c2noc(-c3ccccc3F)n2)c1)Nc1ncccn1 [Compound 8]	247 to 249 °C
CC(OC(=O)NC(=O)c1cccc(-c2noc(-c3ccccc3F)n2)c1)c1ccc(C(F)(F)F)cc1 (centres unmarked) [Compound 40]	161 to 163 °C
O=C(NC(=O)c1cccc(-c2noc(-c3ccccc3F)n2)c1)OCCc1ccccc1 [Compound 16]	129 to 130 °C
O=C(NC(=O)c1cccc(-c2noc(-c3ccccc3F)n2)c1)OC1CCCc2ccccc21 (centres unmarked) [Compound 32]	168 to 170 °C
CC(OC(=O)NC(=O)c1cccc(-c2noc(-c3ccccc3F)n2)c1)c1ccccc1 (centres unmarked) [Compound 30]	140 to 141 °C
O=C(NC(=O)C(F)(F)F)c1cccc(-c2noc(-c3ccccc3F)n2)c1 [Compound 47]	119 to 120 °C
O=C(NC(=O)N1CCN(c2ccccc2)CC1)c1cccc(-c2noc(-c3ccccc3F)n2)c1 [Compound 28]	169 to 173 °C
CCN(CC)C(=O)NC(=O)c1cccc(-c2noc(-c3ccccc3F)n2)c1 [Compound 26]	161 to 163 °C
CC(OC(=O)NC(=O)c1cccc(-c2noc(-c3ccccc3F)n2)c1)c1ccc(F)cc1 (centres unmarked) [Compound 51]	116 to 118 °C
CONC(=O)NC(=O)c1cccc(-c2noc(-c3ccccc3F)n2)c1 [Compound 5]	206 to 207 °C
O=C(NC(=O)c1cccc(-c2noc(-c3ccccc3F)n2)c1)Nc1ccccn1 [Compound 9]	252 to 254 °C
O=C(NCCF)NC(=O)c1cccc(-c2noc(-c3ccccc3F)n2)c1 [Compound 7]	233 to 234 °C
CC(OC(=O)NC(=O)c1cccc(-c2noc(-c3ccccc3F)n2)c1)c1ccncc1 (centres unmarked) [Compound 48]	180 to 183 °C
C[C@@H](OC(=O)NC(=O)c1cccc(-c2noc(-c3ccccc3F)n2)c1)C(N)=O [Compound 44]	193 to 196 °C
O=C(NC(=O)N1CCOCC1)c1cccc(-c2noc(-c3ccccc3F)n2)c1 [Compound 25, Morpholine-4-carboxylic Acid 3-[5-(2-fluorophenyl)-[1,2,4]oxadiazol-3-yl]benzoylamide]	190 to 194 °C
COCC(C)OC(=O)NC(=O)c1cccc(-c2noc(-c3ccccc3F)n2)c1 (centres unmarked) [Compound 34]	141 to 143 °C
O=C(NC(=O)c1cccc(-c2noc(-c3ccccc3F)n2)c1)OCCN1CCOCC1 [Compound 12]	223 to 224 °C
Cc1cc(C)cc(NC(=O)NC(=O)c2cccc(-c3noc(-c4ccccc4F)n3)c2)c1 [Compound 27]	247 to 250 °C
CN1C(=O)C[C@H](OC(=O)NC(=O)c2cccc(-c3noc(-c4ccccc4F)n3)c2)C1=O [Compound 43]	120 to 123 °C
O=C(NC(=O)c1cccc(-c2noc(-c3ccccc3F)n2)c1)OCc1ccccc1 [Compound 19]	133 to 134 °C
O=C(NC(=O)c1cccc(-c2noc(-c3ccccc3F)n2)c1)OC(c1ccccc1)C(F)(F)F (centres unmarked) [Compound 33]	164 to 165 °C
CC(OC(=O)NC(=O)c1cccc(-c2noc(-c3ccccc3F)n2)c1)C(C)(C)C (racemic) [Compound 37, (±)-{3-[5-(2-Fluorophenyl)-[1,2,4]oxadiazol-3-yl]benzoyl}carbamic Acid 1,2,2-trimethylpropyl Ester]	170 to 173 °C
CC(C)CC(C)OC(=O)NC(=O)c1cccc(-c2noc(-c3ccccc3F)n2)c1 (centres unmarked) [Compound 39]	108 to 109 °C
O=C(NC(=O)c1cccc(-c2noc(-c3ccccc3F)n2)c1)Oc1cccc2c1CCCC2 [Compound 23]	199 to 202 °C
CC(C)C(C)OC(=O)NC(=O)c1cccc(-c2noc(-c3ccccc3F)n2)c1 (centres unmarked) [Compound 38]	168 to 170 °C
O=C(NC(=O)c1cccc(-c2noc(-c3ccccc3F)n2)c1)OC1Cc2ccccc2C1 [Compound 36]	165 to 168 °C
O=C(NC(=O)c1cccc(-c2noc(-c3ccccc3F)n2)c1)Oc1ccccc1 [Compound 10]	252 to 254 °C
Cc1ccc(S(=O)(=O)NC(=O)NC(=O)c2cccc(-c3noc(-c4ccccc4F)n3)c2)cc1 [Compound 15]	188 to 191 °C
COCCOC(=O)NC(=O)c1cccc(-c2noc(-c3ccccc3F)n2)c1 [Compound 21]	139 to 141 °C
CC(C)C(=O)NC(=O)c1cccc(-c2noc(-c3ccccc3F)n2)c1 [Compound 46, 3-[5-(2-Fluorophenyl)-[1,2,4]oxadiazol-3-yl]-N-isobutyrl-benzamide]	183 to 184 °C

The remaining lines, values ahead:

melting point	Molecule
132 to 134 °C	O=C(NC(=O)c1cccc(-c2noc(-c3ccccc3F)n2)c1)OC1CCN(Cc2ccccc2)CC1 [Compound 42]
119 to 120 °C	CC(=O)NC(=O)c1cccc(-c2noc(-c3ccccc3F)n2)c1 [Compound 45, N-Acetyl-3-[5-(2-fluorophenyl)-[1,2,4]oxadiazol-3-yl]benzamide]
152 to 155 °C	CCCOC(=O)NC(=O)c1cccc(-c2noc(-c3ccccc3F)n2)c1 [Compound 20]
150 to 152 °C	CC(OC(=O)NC(=O)c1cccc(-c2noc(-c3ccccc3F)n2)c1)C1CC1 (centres unmarked) [Compound 31]
152 to 156 °C	O=C(NC(=O)c1cccc(-c2noc(-c3ccccc3F)n2)c1)O[C@@H]1CCOC1 [Compound 49]
160.5 to 162 °C	CCOC(=O)NC(=O)c1cccc(-c2noc(-c3ccccc3F)n2)c1 [Compound 2]
187 to 190 °C	O=C(NC(=O)c1cccc(-c2noc(-c3ccccc3F)n2)c1)OC1CCCC1 [Compound 22]
134 to 138 °C	O=C(NC(=O)c1cccc(-c2noc(-c3ccccc3F)n2)c1)OCC1CCCCC1 [Compound 18]
176 to 177 °C	COC(=O)NC(=O)c1cccc(-c2noc(-c3ccccc3F)n2)c1 [Compound 1]
197 to 200 °C	O=C(NC(=O)c1cccc(-c2noc(-c3ccccc3F)n2)c1)OC1CCOC1 (centres unmarked) [Compound 35]
172 to 174 °C	O=C(NC(=O)c1cccc(-c2noc(-c3ccccc3F)n2)c1)OC1CCCCC1 [Compound 17]
177.5 to 179 °C	O=C(NC(=O)c1cccc(-c2noc(-c3ccccc3F)n2)c1)OC1CCOCC1 [Compound 11]
178 to 180 °C	O=C(NC(=O)N1CCCC1)c1cccc(-c2noc(-c3ccccc3F)n2)c1 [Compound 24]
172 to 174 °C	CC(C)OC(=O)NC(=O)c1cccc(-c2noc(-c3ccccc3F)n2)c1 [Compound 3]
240 °C	NC(=O)NC(=O)c1cccc(-c2noc(-c3ccccc3F)n2)c1 [Compound 6]
226 to 227.5 °C	O=C(NC(=O)c1cccc(-c2noc(-c3ccccc3F)n2)c1)NC1CC1 [Compound 4]

Test system: tripeptidyl-peptidase 1 (TPP-I)
Conditions: patient-derived LINCL cell line, compound heterozygous Arg208Stop and a rare nonsense mutation; maximal; cited from earlier work

Molecule	TPP-I restored, of normal levels
gentamicin	approximately 7%
